The values below come from paper PMC5357792, “Identification of mangiferin as a potential Glucokinase activator by structure-based virtual ligand screening” (Scientific Reports, 2017).

The target of the first assay is T1, Glucokinase (GK) (Homo sapiens, UniProt P35557).
T1 construct: gene GCK; full-length human glucokinase (GenBank: BC001890.1), C-terminally hexa-histidine tagged
T1 sequence (P35557 1-465): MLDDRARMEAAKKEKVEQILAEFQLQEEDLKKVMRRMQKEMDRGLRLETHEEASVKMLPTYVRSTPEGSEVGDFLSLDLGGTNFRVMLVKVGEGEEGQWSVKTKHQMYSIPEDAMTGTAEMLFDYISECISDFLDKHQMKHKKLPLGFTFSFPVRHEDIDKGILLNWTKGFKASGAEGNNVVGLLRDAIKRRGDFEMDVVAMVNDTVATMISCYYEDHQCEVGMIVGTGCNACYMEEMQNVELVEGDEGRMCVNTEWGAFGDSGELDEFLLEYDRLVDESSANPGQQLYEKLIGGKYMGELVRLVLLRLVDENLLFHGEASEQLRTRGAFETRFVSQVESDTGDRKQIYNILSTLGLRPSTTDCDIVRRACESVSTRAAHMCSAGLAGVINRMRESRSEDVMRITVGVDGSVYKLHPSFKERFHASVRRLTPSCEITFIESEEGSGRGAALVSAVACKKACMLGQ
Nature of the assay: microscale thermophoresis with labelled recombinant GK; also coupled G6PDH enzyme activation assay (EC50 ca. […]). It counts as binding. The settings on record: read-out: Dissociation constant with GK / Kd. (In general: In MST a laser heats a spot of the sample, and binding alters the fluorescence response.)
Take `O=c1c2cc(O)c(O)cc2oc2cc(O)c([C@@H]3O[C@H](CO)[C@@H](O)[C@H](O)[C@H]3O)c(O)c12` [compound 7, mangiferin]: the Kd is 472 ± 20.5 µM.

Another assay addresses T1, Glucokinase (GK). Nature of the assay: microscale thermophoresis with labelled recombinant GK. Type of assay: binding. The settings on record: read-out: Dissociation constant with GK / Kd.
For `O=C(Nc1ncc(SCCN2CCCC2)s1)[C@]1(c2ccc(S(=O)(=O)C3CC3)cc2)C[C@H]1C1CCCCC1` [LY2608204], the Kd amounted to 600 ± 36.1 µM.

For a further assay, the target named is T1, Glucokinase (GK). Nature of the assay: biochemical.
Conditions: not given
On the set-up: G6PDH-coupled spectrophotometric glucokinase activity, NADPH absorbance at 340 nm, 10 mM glucose, 37 °C. As to the method:
The in vitro efficacy of twelve compounds was assessed in two separate steps: a SC50 assay to evaluate the potency of each compound at a unified compound concentration of 50 μM. Then, we seek to obtain the values of EC50 and kinetic parameters Ka, Vmax of promising compounds, according to a reported method with minor modifications. Briefly, Twelve compounds unified in the same concentration of 50 μM were assayed in a 96-well plate with a final reaction volume of 100 μl. The reaction mixture consisted of 25 mM Hepes (pH 7.5), 10 mM glucose, 1 mM ATP, 4 U/ml G6PDH (Sigma-Aldrich Co. LLC., St. Louis, MO, USA), 1 mM NADP, 2.5 mM MgCl, 50 mM KCl, 2 mM DTT, […] recombinant human glucokinase and test compounds. The whole reaction mixtures were kept under 37 °C for 20 minutes. The increase in the rate of absorbance of NADPH generated in the reactions was monitored kinetically at 340 nm. The values were calculated by comparing with untreated GK. This term is called the efficacy of stimulatory concentration (SC50). Then, the EC50 of promising candidates were determined in the presence of various fixed concentrations of compound 7 (2–300 μM). Values were calculated by fitting enzymatic rates to the Hill equation by using GraphPad Prism 5.01. In order to further investigate the activation effect of the twelve compounds on GK enzymatic activity, the recombinant GK protein had been successfully obtained by genetic engineering method. Evaluation of the twelve hits on enzymatic activity was assessed spectrometrically by a coupled reaction with glucose-6-phosphate dehydrogenase. […] The activation percentage was the GK enzyme activity in each group compared to that of the blank control group. Each compound was assayed triply. The value presents in a column as the mean ± SD (n = 3). *P < 0.05, **P < 0.01, compared to the blank control group.
For the compound `O=c1c2cc(O)c(O)cc2oc2cc(O)c([C@@H]3O[C@H](CO)[C@@H](O)[C@H](O)[C@H]3O)c(O)c12` [compound 7, mangiferin], the EC50 is 156 µM.

The assay is the same for the next values; noted with them: untreated GK = 100%; read-out: % of control remaining.
As to `O=C(Nc1nc(-c2c[nH]c3ccccc23)cs1)c1cnccn1` [compound 1, 1], the remaining activity at 50 µM was determined as 86.1 ± 5.68%.

Regarding `NC(=O)c1coc(-c2csc(NC(=O)c3ccc(Cl)cc3)n2)c1` [compound 2, 2], the remaining activity at 50 µM amounted to 86.5 ± 5.71%.

Turning to `Cc1nc(S)sc1CC(=O)Nc1c[nH]ccc1=O` [compound 3, 3], the remaining activity at 50 µM was determined as 46.7 ± 1.21%.

As for `Oc1ccc(Nc2ncnc3sccc23)cc1CN1CCOCC1` [compound 4, 4], the remaining activity at 50 µM worked out at 37.8 ± 12%.

Regarding `Cc1sc2ncnc(SCC(=O)Nc3c[nH]ccc3=O)c2c1C` [compound 5, 5], the remaining activity at 50 µM was 87.6 ± 5.67%.

As to `O=C(NCC(c1cccs1)c1c[nH]c2ccccc12)c1ccccn1` (centres unmarked) [compound 6, 6], the remaining activity at 50 µM came out at 90 ± 3.88%.

For the compound `O=c1c2cc(O)c(O)cc2oc2cc(O)c([C@@H]3O[C@H](CO)[C@@H](O)[C@H](O)[C@H]3O)c(O)c12` [compound 7, mangiferin], the remaining activity at 50 µM is 126 ± 2.83%.

With `CC(O)CNc1nc2ccccc2n1Cc1nc(N)nc(N(C)C)n1` (centres unmarked) [compound 8, 8], the remaining activity at 50 µM was 92 ± 0.96%.

As to `Cn1ccc(NC(=O)N(Cc2ccccc2)CC(O)c2ccco2)n1` (centres unmarked) [compound 9, 9], the remaining activity at 50 µM is 82.4 ± 6.72%.

Turning to `O=C1NCC(c2ccc(Cl)cc2)Cc2[nH]c(-c3ncc[nH]3)nc21` (centres unmarked) [compound 10, 10], the remaining activity at 50 µM was found to be 94.3 ± 1.49%.

Regarding `COc1ccccc1C(=O)Nc1cccc(NC(=O)c2ncc[nH]2)c1` [compound 11, 11], the remaining activity at 50 µM came to 75.9 ± 6.72%.

As usually defined, the EC50 is the concentration needed to bring the measured effect to its halfway point.
